The values that follow come from patent US9974778B2, “Substituted pyridinones as MGAT2 inhibitors” (BRISTOL-MYERS SQUIBB COMPANY, priority 2014, dated 2018).

T1 sequence (Q3SYC2 whole entry): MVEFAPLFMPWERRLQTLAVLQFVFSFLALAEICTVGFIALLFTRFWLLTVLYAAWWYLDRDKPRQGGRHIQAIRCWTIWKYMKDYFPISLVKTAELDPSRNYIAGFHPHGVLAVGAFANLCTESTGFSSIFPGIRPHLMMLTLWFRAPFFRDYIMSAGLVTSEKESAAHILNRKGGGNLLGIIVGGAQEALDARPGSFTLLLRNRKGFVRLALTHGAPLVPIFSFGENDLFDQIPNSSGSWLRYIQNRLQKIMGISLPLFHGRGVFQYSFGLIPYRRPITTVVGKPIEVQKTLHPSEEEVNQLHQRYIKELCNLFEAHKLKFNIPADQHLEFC

This test has as its target T1, Human MGAT-2 (Homo sapiens, UniProt Q3SYC2).
T1 construct: made in house; host or cells: Sf9 cells (membrane preparation)
In words: MGAT LCMS Assay. The note with it: human MGAT2 membranes expressed in Sf9 cells; 100 μM 2-oleoylglycerol, 15 μM oleoyl-coenzyme A; read-out: h-MGAT LCMS IC50. Format: biochemical. As for the experimental part:
Assay plates were run through a fully automated robotics system and shaken for 5 seconds every minute for a total 10 minutes. The reactions were then quenched with 120 μL of ice cold methanol containing 1 μg/mL 1,2-distearoyl-rac-glycerol as the internal standard. Plates were shaken for 2 minutes and spun down to remove protein precipitation. After the spin, samples were transferred to LC/MS compatible PCR plates. For LC/MS analysis, a ThermoFisher Surveyor pump, utilizing a Waters […]® C8, 50×2.1 mm column, was used for the chromatography of enzyme products. The buffer system consists of 0.1% formic acid in water with a mobile phase consisting 0.1% formic acid in methanol. […] The first 0.5 minutes of each injection was diverted to waste to eliminate the presence of Phosphate buffer in the enzymatic reaction. The column was run at 0.6 mL/min and a temperature of 65° C. Mass spectrometry analysis of the samples was performed on a ThermoFisher Quantum Triple quad utilizing APCI (+) as the mode of ionization. […] The ratio of Diolein to internal standard (Peak Area Ratio) is utilized to calculate IC50 values.
`Cc1ccc(-c2cc(-c3ccc(OCCCC(F)(F)F)cc3Cl)[nH]c(=O)c2C(=O)Nc2ccc(OC(F)(F)F)cc2)cc1` [Example 132, 6-(2-Chloro-4-(4,4,4-trifluorobutoxy)phenyl)-2-oxo-4-(p-tolyl)-N-(4-(trifluoromethoxy)phenyl)-1,2-dihydropyridine-carboxamide]: the IC50 – broadly, the concentration that inhibits the measured activity by half – is 14 nM.
Consider `CC(C)(C)c1ccc(-c2cc(-c3ccc(OCCCC(F)(F)F)cc3)[nH]c(=O)c2C(=O)O)cc1` [Example 11, 4-(4-(tert-Butyl)phenyl)-2-oxo-6-(4-(4,4,4-trifluorobutoxy)phenyl)-1,2-dihydropyridine-3-carboxylic acid], for which the IC50 was 461 nM.
With `O=c1[nH]c(-c2ccc(OCCCC(F)(F)F)cc2F)cc(-c2ccc(OC(F)F)cc2)c1-c1nn[nH]n1` [Example 113, 4-(4-(Difluoromethoxy)phenyl)-6-(2-fluoro-4-(4,4,4-trifluorobutoxy)phenyl)-3-(2H-tetrazol-5-yl)pyridin-2(1H)-one], the IC50 worked out at 7 nM.
As to `O=c1[nH]c(-c2ccc(OCCCCC(F)(F)F)cc2)cc(-c2ccc(C3CC3)s2)c1-c1nnn[nH]1` [Example 46], the IC50 turned out to be 27 nM.
With `COc1ccc(NC(=O)c2c(-c3ccc(C)cc3)cc(-c3ccc(OCCCC(F)(F)F)cc3)[nH]c2=O)cc1` [Example 2, N-(4-Methoxyphenyl)-2-oxo-4-(p-tolyl)-6-(4-(4,4,4-trifluorobutoxy)phenyl)-1,2-dihydropyridine-3-carboxamide], the IC50 is 30 nM.
For `COc1ccc(-c2cc(-c3ccc(OCCCCCC(F)(F)F)cc3)[nH]c(=O)c2C(=O)NS(=O)(=O)C2CC2)cc1` [Example 65] the value was 172 nM; for `CCc1ccc(-c2cc(-c3ccc(OCCCCCC(F)(F)F)cc3)[nH]c(=O)c2C(=O)NS(=O)(=O)C2CC2)s1` [Example 84, N-(Cyclopropylsulfonyl)-4-(5-ethylthiophen-2-yl)-2-oxo-6-(4-((6,6,6-trifluorohexyl)oxy)phenyl)-1,2-dihydropyridine-3-carboxamide], 1 nM.
With `CCc1ccc(-c2cc(-c3ccc(C4CCC(C)(C)CC4)cc3)[nH]c(=O)c2-c2nn[nH]n2)s1` [Example 161, 6-[4-(4,4-Dimethylcyclohexyl)phenyl]-4-(5-ethylthiophen-2-yl)-3-(2H-1,2,3,4-tetrazol-5-yl)-1,2-dihydropyridin-2-one], the IC50 amounted to 76 nM.
As for `O=c1[nH]c(-c2ccc(OCCCC(F)(F)F)cc2F)cc(-c2ncc(C3CC3)s2)c1-c1nnn[nH]1` [Example 125, 4-(5-Cyclopropylthiazol-2-yl)-6-(2-fluoro-4-(4,4,4-trifluorobutoxy)phenyl)-3-(1H-tetrazol-5-yl)pyridin-2(1H)-one], the IC50 was found to be 2 nM.
Regarding `CCOc1ccc(NC(=O)c2c(-c3ccc(C)cc3)cc(-c3ccc(OCCCC(F)(F)F)cc3)[nH]c2=O)cc1` [Example 5, N-(4-Ethoxyphenyl)-2-oxo-4-(p-tolyl)-6-(4-(4,4,4-trifluorobutoxy)phenyl)-1,2-dihydropyridine-3-carboxamide], the IC50 is 21 nM.
In the case of “5-Chloro-6-cyclohexyl-N-(4-methoxyphenyl)-2-oxo-4-(p- tolyl)-1,2-dihydropyridine-3-carboxamide [Example 35]”, the IC50 was 288 nM.
In the case of `CCc1ccc(-c2c(Cl)c(-c3ccc(OCCCC(F)(F)F)cc3)[nH]c(=O)c2-c2nnn[nH]2)s1` [Example 128, 5-Chloro-4-(5-ethylthiophen-2-yl)-3-(1H-tetrazol-5-yl)-6-(4-(4,4,4-trifluorobutoxy)phenyl)pyridin-2(1H)-one], the IC50 turned out to be 83 nM.
Next, `Cc1ccc(-c2cc(-c3ccc(C4=CCCCCC4)cc3)[nH]c(=O)c2-c2nnn[nH]2)cc1` [Example 69, 6-(4-(Cyclohept-1-en-1-yl)phenyl)-3-(1H-tetrazol-5-yl)-4-(p-tolyl)pyridin-2(1H)-one]: 220 nM; `CCc1cnc(-c2cc(-c3ccc(OCCCCCC(F)(F)F)cc3F)[nH]c(=O)c2)s1` [Example 166, 4-(5-Ethyl-1,3-thiazol-2-yl)-6-{2-fluoro-4-[(6,6,6-trifluorohexyl)oxy]phenyl}-1,2-dihydropyridin-2-one]: 70 nM; `CCc1cnc(-c2cc(-c3ccc(OCCCC(F)(F)F)cc3F)[nH]c(=O)c2C(=O)NS(C)(=O)=O)s1` [Example 146, 4-(5-Ethylthiazol-2-yl)-6-(2-fluoro-4-(4,4,4-trifluorobutoxy)phenyl)-N-(methylsulfonyl)-2-oxo-1,2-dihydropyridine-3-carboxamide]: 29 nM.
Take `CCCC1CC=C(c2ccc(-c3cc(-c4ccn(CC5CC5)n4)c(-c4nn[nH]n4)c(=O)[nH]3)cc2)CC1` (stereo not drawn) [Example 173, 4-[1-(Cyclopropylmethyl)-1H-pyrazol-3-yl]-6-[4-(4-propylcyclohex-1-en-1-yl)phenyl]-3-(2H-1,2,3,4-tetrazol-5-yl)-1,2-dihydropyridin-2-one]: the IC50 was found to be 57 nM.
Take `O=C(Nc1ccc(OC(F)(F)F)cc1)c1c(-c2cnn(C3CC3)c2)cc(C2CCCCC2)[nH]c1=O` [Example 94]: the IC50 was found to be 355 nM.
In the case of `COc1ccc(NC(=O)c2c(-c3ccc(C(C)(C)C)cc3)cc(-c3ccc(OCCCC(F)(F)F)cc3)[nH]c2=O)cc1` [Example 51, 4-(4-(tert-Butyl)phenyl)-N-(4-methoxyphenyl)-2-oxo-6-(4-(4,4,4-trifluorobutoxy)phenyl)-1,2-dihydropyridine-3-carboxamide], the IC50 is 417 nM.
For the compound `CCOc1ccc(NC(=O)c2c(-c3ccc(C(C)(C)C)cc3)cc(-c3ccc(OCCCC(F)(F)F)cc3)[nH]c2=O)cc1` [Example 45, 4-(4-(tert-Butyl)phenyl)-N-(4-ethoxyphenyl)-2-oxo-6-(4-(4,4,4-trifluorobutoxy)phenyl)-1,2-dihydropyridine-3-carboxamide], the IC50 worked out at 9 nM.
On to `CC1(C)CC=C(c2ccc(-c3cc(-c4ccn(CC5CC5)n4)c(-c4nn[nH]n4)c(=O)[nH]3)cc2)CC1` [Example 170, 4-[1-(Cyclopropylmethyl)-1H-pyrazol-3-yl]-6-[4-(4,4-dimethylcyclohex-1-en-1-yl)phenyl]-3-(2H-1,2,3,4-tetrazol-5-yl)-1,2-dihydropyridin-2-one], for which the IC50 came out at 17 nM.
As to `O=c1[nH]c(-c2ccc(OCCCCCC(F)(F)F)cc2F)cc(-c2ccc(C3CC3)s2)c1-c1nn[nH]n1` [Example 96, 4-(5-Cyclopropylthiophen-2-yl)-6-(2-fluoro-4-((6,6,6-trifluorohexyl)oxy)phenyl)-3-(2H-tetrazol-5-yl)pyridin-2(1H)-one], the IC50 is 1 nM.
Next, `CCOc1ccc(NC(=O)c2c(-c3ccc(C)cc3)cc(C3(F)CCCCC3)[nH]c2=O)cc1` [Example 41, N-(4-Ethoxyphenyl)-6-(1-fluorocyclohexyl)-2-oxo-4-(p-tolyl)-1,2-dihydropyridine-3-carboxamide]: 36 nM.
Take `Cc1ccc(-c2cc(-c3ccc(OCCCC(F)(F)F)cc3)[nH]c(=O)c2C(=O)NC2CCC2)cc1` [Example 79, N-Cyclobutyl-2-oxo-4-(p-tolyl)-6-(4-(4,4,4-trifluorobutoxy)phenyl)-1,2-dihydropyridine-3-carboxamide]: the IC50 worked out at 198 nM.
For the compound `CCOc1ccc(NC(=O)c2c(-c3ccc(C)cc3)c(C)c(-c3ccc(OCCCC(F)(F)F)cc3)[nH]c2=O)cc1` [Example 24, N-(4-Ethoxyphenyl)-5-methyl-2-oxo-4-(p-tolyl)-6-(4-(4,4,4-trifluorobutoxy)phenyl)-1,2-dihydropyridine-3-carboxamide], the IC50 was found to be 39 nM.
As for `CS(=O)(=O)NC(=O)c1c(-c2ccc(OC(F)F)cc2)cc(-c2ccc(OCCCCCC(F)(F)F)cc2)[nH]c1=O` [Example 71], the IC50 worked out at 15 nM.
As for `Cc1ccc(-c2cc(-c3ccc(OCCCC(F)(F)F)cc3C(F)(F)F)[nH]c(=O)c2C(=O)Nc2ccc(OC(F)(F)F)cc2)cc1` [Example 111, 2-Oxo-4-(p-tolyl)-6-(4-(4,4,4-trifluorobutoxy)-2-(trifluoromethyl)phenyl)-N-(4-(trifluorormethoxy)phenyl)-1,2-dihydropyridine-3-carboxamide], the IC50 was 2 nM.
In the case of `CC(C)(C)C1CC=C(c2ccc(-c3cc(-c4ccn(CC5CC5)n4)c(-c4nn[nH]n4)c(=O)[nH]3)cc2)CC1` (stereo not drawn) [Example 171, 6-[4-(4-tert-Butylcyclohex-1-en-1-yl)phenyl]-4-[1-(cyclopropylmethyl)-1H-pyrazol-3-yl]-3-(2H-1,2,3,4-tetrazol-5-yl)-1,2-dihydropyridin-2-one], the IC50 was 6 nM.
With `CCc1ccc(-c2cc(-c3ccc(OCCCCCC(F)(F)F)cc3C(F)(F)F)[nH]c(=O)c2C(=O)NS(=O)(=O)C2CC2)s1` [Example 154, N-(Cyclopropanesulfonyl)-4-(5-ethylthiophen-2-yl)-2-oxo-6-{4-[(6,6,6-trifluorohexyl)oxy]-2-(trifluoromethyl)phenyl}-1,2-dihydropyridine-3-carboxamide], the concentration for half-maximal inhibition (IC50) was 2 nM.
As to `CCc1cnc(-c2cc(-c3ccc(OCCCC(F)(F)F)cc3F)[nH]c(=O)c2-c2nnn[nH]2)s1` [Example 133, 4-(5-Ethylthiazol-2-yl)-6-(2-fluoro-4-(4,4,4-trifluorobutoxy)phenyl)-3-(1H-tetrazol-5-yl)pyridin-2(1H)-one], the IC50 was 2 nM.
Regarding `CC(C)n1ccc(-c2cc(-c3ccc(OCCCCCC(F)(F)F)cc3)[nH]c(=O)c2-c2nn[nH]n2)n1` [Example 66], the IC50 stood at 61 nM.
